According to a melting point compilation (Tetko et al.; mined from patent text by program, amines drawn as free bases though some values may be those of a salt):

melting point [°C] | Compound
94 to 96 | COC(=O)OCC1OC(n2cc(C)c(=O)[nH]c2=O)C(OC(=O)c2cccc(C(F)(F)F)c2)C1OS(C)(=O)=O (stereo not given)
188 | Oc1c(F)cc(Cn2cc[nH]c2=S)cc1F
60 to 64 | C=Cc1cc(-c2cccnc2)no1
136 | CC(C)Oc1c(C(=O)O)n(C)c2ccc(OCc3ccccc3)cc12
198 | C=CCc1c(O)cc(OC)c2c(C)cc(=O)oc12
205 to 217 | COC(=O)CC(=O)NC[C@H]1CN(c2ccc3c(c2)CCCc2cnoc2-3)C(=O)O1
202 to 204 | CCC1(c2cccs2)OCC(=O)Nc2ccc(-c3csc(C#N)c3)cc21 (stereo not given)
152 to 153 | CCCCOc1c(N(C)C(=O)OC(C)(C)C)n(CC(C)C)c(=O)c2ccc(-c3cnco3)cc12
231 to 232 | CC[C@@H]1CN(c2c(F)c(N)c3c(=O)c(C(=O)O)cn(C4CC4)c3c2F)C[C@H]1NC(=O)OC (relative stereo)
218 to 219 | CN1C(=O)c2cc(CCc3ccncc3)cnc2N(C2CC2)c2nc(Cl)ccc21
184 | CCOC(=O)Cn1c2ccc(Cl)ccc-2c(C(C)=O)c1=O
140 to 150 | CCCCn1ccc(Cc2cnc(NCCCCc3ncc(Br)cc3N)[nH]c2=O)cc1=O
226 | NC(=O)CN1C(=O)Cc2cc(Cl)ccc21
148 to 150 | O=C1CC[C@@H]([N+](=O)[O-])[C@H](c2ccc(Cl)cc2)N1 (relative stereo)
188 to 190 | CC#COc1cc(-n2c(=O)n3n(c2=S)COCC3)c(Cl)cc1Cl
151 to 155 | N=C(N)NCCCOc1cccc2c1NC(=O)C(CC(=O)O)C2 (stereo not given)
117 to 118 | CCOC(=O)c1ccc(-c2nc(CCl)c(C)o2)o1
76 to 77 | CCOC(=O)c1sc(C)c2c1CCCC2=O
130 | Cc1ccc(N(C(=O)CCl)c2c(Cl)cccc2Cl)cc1
66 to 68 | ClC1=NC(Cl)(C(Cl)(Cl)Cl)N=C1Cl

melting point [°C] | Compound
104 to 105 | CCN1C=C(C(=O)c2c(C)nn3ccccc23)CCC1
52 to 53 | CCCc1nn(-c2ccc(C(F)(F)F)cn2)cc1C=O
148 to 149 | CCC(=O)N(C)c1cccc(C(=O)C=CN(C)C)c1
340 to 343 | O=C(O)c1ccc2c(c1)S(=O)(=O)c1ccccc1S2=O (stereo not given)
205 to 207 | CC(=O)Nc1c(C(=O)c2nccn2C)[nH]c2cc(Cl)ccc12
128 to 129 | CCCCc1c(/C=C/C(=O)NCCCCCCc2cncnc2)cc(OC)c2ccccc12
150 to 151 | CN1CC(C(=O)c2cccn2Cc2ccc(F)cc2)=C(O)C1=O
153 to 157 | CC(C)Oc1cccc(-c2nn(C(C)c3oc4ccccc4c(=O)c3-c3cccc(F)c3)c3ncnc(N)c23)c1 (stereo not given)
90 | CN(C)C=C(C#N)CNC=O
149 to 151 | COc1ccc(-c2cc(OC)c(OC)cc2[N+](=O)[O-])cc1OC
198 to 201 | CC(=O)NCC(C)(C)c1ccc2nc(C)[nH]c2c1
226 to 229 | COc1c(N2C[C@H](CF)[C@](C)(N)C2)c(F)cc2c(=O)c(C(=O)O)cn(C3CC3)c12
153 to 154 | COc1cc(NCc2ccccc2C)ccc1C(=O)N1CCCC(CC(=O)N2CCN(C)CC2)c2cc(Cl)ccc21 (stereo not given)
70 to 72 | CCCCCCCCCCCCCCCCCCOc1cc(NC(=O)OC(C)(C)C)cc([N+](=O)[O-])c1
214 to 216 | O=C(c1c(-c2cc(Cl)cc(Cl)c2)[nH]c2c(Cl)cc(Cl)cc12)C(F)(F)F
70 to 72 | CCCCCCCCCCCCC(Oc1ccc2c(c1)OCO2)C(=O)O (stereo not given)
267 to 268 | OCC1OC(c2c(Cl)c(Cl)cc3nc(Cl)cn23)C(O)C1O (stereo not given)
121 to 123 | Cc1cccc2c1nc(-c1cccc3ccccc13)n2Cc1c(F)cccc1F
78.3 to 79.9 | O=C(NC(Cc1ccccc1)C(=O)O)OCc1ccc(COCc2ccccc2)cc1 (stereo not given)

Compound | melting point [°C]
CNS(=O)(=O)Cc1ccc(NC(=N)c2ccc3[nH]cc(CCN)c3c2)cc1 | 63 to 65
